# From patent publication US9757354B2 (priority 2015, dated 2017)
# Read-outs that look alike come from different tables or passages of the source.
# What was measured:
# [1] = rabbit, in vivo
# cyanide toxicity [2] = conditions: mouse, in vivo; cited from earlier work
# cyanide toxicity [3] = conditions: in vivo; cited from earlier work
# physchem = conditions: 20 °C
compound,measurement,setting,value
NCCCC[C@H](N)C(=O)O.NCCCC[C@H](N)C(=O)O.O=C(O)C1(O)CSC(O)(C(=O)O)CS1 (stereo not shown) [lysine salt],absorption of the antidote,[1],poor absorption
same,tolerability of injection,[1],poorly tolerated
"O.O.O.O.O=C(O)C1(O)CSC(O)(C(=O)O)CS1.[Na].[Na] (stereo not shown) [Compound 3a, disodium 2,5-dihydroxy-1,4-dithiane-2,5-dicarboxylic acid tetrahydrate]",rescue,cyanide toxicity [2],highly effective
same,rescue,cyanide toxicity [3],highly effective
"O=C([O-])C1(O)CSC(O)(C(=O)[O-])CS1.[K+].[K+] (stereo not shown) [Compound 3c, Dipotassium 2,5-Dihydroxy-1,4-dithiane-2,5-dicarboxylate]",solubility,physchem,570 mM
"O=C(O)C1(O)CSC(O)(C(=O)O)CS1 (stereo not shown) [Compound 2, 2,5-dihydroxy-1,4-dithiane-2,5-dicarboxylic acid]",solubility,physchem,200 mM
"O=C([O-])C1(O)CSC(O)(C(=O)[O-])CS1.[Li+].[Li+] (stereo not shown) [Compound 3b, Dilithium 2,5-Dihydroxy-1,4-dithiane-2,5-dicarboxylate]",solubility,physchem,1050 mM
